Tests used:
Assay in all cases: Nanosyn kinase profiling
Type in all cases: biochemical
Conditions in all cases: read-out: Percentage inhibition; for inhibition at 0.1 µM: 0.1 µM inhibitor; for inhibition at 1 µM: 1 µM inhibitor
AKT1 = target: T1, AKT1 (Homo sapiens, UniProt P31749)
T1 construct: purchased Nanosyn (enzymatic panel); SGC in-house recombinant human kinases (DSF panel); Invitrogen (ALK1-6)
How it was run: (§1)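 Percent inhibition of each kinase was measured with the inhibitor at 0.1 µM and at 1 µM, as part of a 200-kinase human selectivity panel.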

AKT2 = target: T2, AKT2 (Homo sapiens, UniProt P31751)
T2 construct: purchased Nanosyn (enzymatic panel); SGC in-house recombinant human kinases (DSF panel); Invitrogen (ALK1-6)
T2 sequence (P31751 whole entry): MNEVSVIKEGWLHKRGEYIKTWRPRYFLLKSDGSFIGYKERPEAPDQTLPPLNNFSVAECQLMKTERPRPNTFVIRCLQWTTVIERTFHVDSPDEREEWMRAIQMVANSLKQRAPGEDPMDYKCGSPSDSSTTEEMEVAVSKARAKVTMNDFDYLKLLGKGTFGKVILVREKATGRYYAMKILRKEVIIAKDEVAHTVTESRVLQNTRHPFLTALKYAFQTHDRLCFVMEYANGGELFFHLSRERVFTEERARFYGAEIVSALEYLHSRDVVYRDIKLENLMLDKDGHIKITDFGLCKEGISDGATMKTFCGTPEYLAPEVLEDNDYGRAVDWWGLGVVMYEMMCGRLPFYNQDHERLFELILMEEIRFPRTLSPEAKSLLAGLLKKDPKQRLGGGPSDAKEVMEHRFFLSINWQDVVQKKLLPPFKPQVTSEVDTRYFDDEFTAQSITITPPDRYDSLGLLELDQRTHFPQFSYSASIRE
How it was run: as §1

ALK = target: T3, ALK (Homo sapiens, UniProt Q9UM73)
T3 construct: purchased Nanosyn (enzymatic panel); SGC in-house recombinant human kinases (DSF panel); Invitrogen (ALK1-6)
How it was run: as §1

BLK = target: T4, BLK (Homo sapiens, UniProt P51451)
T4 construct: purchased Nanosyn (enzymatic panel); SGC in-house recombinant human kinases (DSF panel); Invitrogen (ALK1-6)
T4 sequence (P51451 whole entry): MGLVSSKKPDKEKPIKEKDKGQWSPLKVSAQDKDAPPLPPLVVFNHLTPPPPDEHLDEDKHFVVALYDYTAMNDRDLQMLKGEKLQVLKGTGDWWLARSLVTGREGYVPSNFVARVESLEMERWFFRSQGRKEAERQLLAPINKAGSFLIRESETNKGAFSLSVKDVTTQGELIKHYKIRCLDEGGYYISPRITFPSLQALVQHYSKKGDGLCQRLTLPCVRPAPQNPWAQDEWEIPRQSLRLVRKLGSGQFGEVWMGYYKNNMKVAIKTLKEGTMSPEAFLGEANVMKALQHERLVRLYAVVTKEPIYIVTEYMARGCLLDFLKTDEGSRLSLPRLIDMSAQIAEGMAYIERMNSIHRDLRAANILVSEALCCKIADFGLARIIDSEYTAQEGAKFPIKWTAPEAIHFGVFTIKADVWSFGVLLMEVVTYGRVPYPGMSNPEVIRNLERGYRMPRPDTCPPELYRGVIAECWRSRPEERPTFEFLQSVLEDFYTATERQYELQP
How it was run: as §1

EPHA4 = target: T5, EPHA4 (Homo sapiens, UniProt P54764)
T5 construct: purchased Nanosyn (enzymatic panel); SGC in-house recombinant human kinases (DSF panel); Invitrogen (ALK1-6)
T5 sequence (P54764 20-986): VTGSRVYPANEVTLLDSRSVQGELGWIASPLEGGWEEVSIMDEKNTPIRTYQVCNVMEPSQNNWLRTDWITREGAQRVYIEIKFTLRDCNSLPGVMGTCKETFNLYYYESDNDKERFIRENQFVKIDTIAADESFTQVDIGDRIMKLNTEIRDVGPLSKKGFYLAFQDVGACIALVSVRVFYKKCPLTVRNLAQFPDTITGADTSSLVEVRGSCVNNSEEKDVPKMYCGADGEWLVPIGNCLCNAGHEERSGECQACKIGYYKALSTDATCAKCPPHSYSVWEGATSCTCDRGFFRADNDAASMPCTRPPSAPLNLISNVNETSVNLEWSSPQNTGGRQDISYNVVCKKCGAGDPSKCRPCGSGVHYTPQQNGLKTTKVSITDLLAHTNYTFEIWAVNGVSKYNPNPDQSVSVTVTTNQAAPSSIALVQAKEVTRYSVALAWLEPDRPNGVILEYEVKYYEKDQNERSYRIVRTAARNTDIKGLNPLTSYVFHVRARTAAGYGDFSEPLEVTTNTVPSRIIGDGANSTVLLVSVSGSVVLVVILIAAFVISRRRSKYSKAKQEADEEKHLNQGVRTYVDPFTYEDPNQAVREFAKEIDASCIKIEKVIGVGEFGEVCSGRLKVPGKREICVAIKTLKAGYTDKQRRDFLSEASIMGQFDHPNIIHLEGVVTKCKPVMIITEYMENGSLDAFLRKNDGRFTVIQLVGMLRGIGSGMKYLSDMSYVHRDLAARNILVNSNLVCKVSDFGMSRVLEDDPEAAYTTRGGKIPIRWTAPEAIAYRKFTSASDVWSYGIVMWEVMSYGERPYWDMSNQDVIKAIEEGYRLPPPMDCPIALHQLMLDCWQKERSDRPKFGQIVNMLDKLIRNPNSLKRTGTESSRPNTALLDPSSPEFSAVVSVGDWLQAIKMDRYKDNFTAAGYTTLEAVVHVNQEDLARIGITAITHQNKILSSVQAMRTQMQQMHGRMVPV
How it was run: as §1

FYN = target: T6, FYN (Homo sapiens, UniProt P06241)
T6 construct: purchased Nanosyn (enzymatic panel); SGC in-house recombinant human kinases (DSF panel); Invitrogen (ALK1-6)
How it was run: as §1

IKK-β = target: T7, IKK-β (Homo sapiens, UniProt O14920)
T7 construct: purchased Nanosyn (enzymatic panel); SGC in-house recombinant human kinases (DSF panel); Invitrogen (ALK1-6)
T7 sequence (O14920 1-756): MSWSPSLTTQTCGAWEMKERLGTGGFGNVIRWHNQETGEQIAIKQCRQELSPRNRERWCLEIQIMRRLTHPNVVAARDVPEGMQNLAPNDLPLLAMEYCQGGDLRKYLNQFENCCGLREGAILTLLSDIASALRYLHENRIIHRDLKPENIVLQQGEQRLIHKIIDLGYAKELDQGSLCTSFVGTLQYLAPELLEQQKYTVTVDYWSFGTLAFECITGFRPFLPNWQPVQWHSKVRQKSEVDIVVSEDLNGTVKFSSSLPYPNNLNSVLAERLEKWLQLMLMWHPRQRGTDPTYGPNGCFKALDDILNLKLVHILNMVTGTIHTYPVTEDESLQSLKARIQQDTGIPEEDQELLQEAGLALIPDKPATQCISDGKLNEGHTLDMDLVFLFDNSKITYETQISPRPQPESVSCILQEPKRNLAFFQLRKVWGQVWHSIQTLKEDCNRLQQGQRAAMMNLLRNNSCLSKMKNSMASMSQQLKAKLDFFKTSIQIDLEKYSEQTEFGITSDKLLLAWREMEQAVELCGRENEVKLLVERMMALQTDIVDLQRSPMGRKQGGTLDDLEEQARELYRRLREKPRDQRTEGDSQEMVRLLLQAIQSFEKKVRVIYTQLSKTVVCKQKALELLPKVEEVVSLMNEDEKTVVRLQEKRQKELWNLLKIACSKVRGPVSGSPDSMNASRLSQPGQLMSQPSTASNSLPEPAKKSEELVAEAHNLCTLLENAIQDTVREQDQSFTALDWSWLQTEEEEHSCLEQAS
How it was run: as §1

MAPK1 = target: T8, MAPK1 (Homo sapiens, UniProt P28482)
T8 construct: purchased Nanosyn (enzymatic panel); SGC in-house recombinant human kinases (DSF panel); Invitrogen (ALK1-6)
T8 sequence (P28482 whole entry): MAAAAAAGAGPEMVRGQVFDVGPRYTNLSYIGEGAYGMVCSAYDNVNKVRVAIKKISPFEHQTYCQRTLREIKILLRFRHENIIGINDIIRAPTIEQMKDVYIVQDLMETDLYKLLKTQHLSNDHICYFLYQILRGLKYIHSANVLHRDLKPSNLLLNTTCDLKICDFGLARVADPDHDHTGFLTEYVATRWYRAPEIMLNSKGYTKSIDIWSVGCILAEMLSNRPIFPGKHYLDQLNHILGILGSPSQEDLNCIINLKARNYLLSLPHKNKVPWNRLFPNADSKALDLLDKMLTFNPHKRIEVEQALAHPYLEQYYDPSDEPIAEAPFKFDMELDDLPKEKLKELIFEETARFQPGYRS
How it was run: as §1

PHKγ1 = target: T9, PHKγ1 (Homo sapiens, UniProt Q16816)
T9 construct: purchased Nanosyn (enzymatic panel); SGC in-house recombinant human kinases (DSF panel); Invitrogen (ALK1-6)
T9 sequence (Q16816 whole entry): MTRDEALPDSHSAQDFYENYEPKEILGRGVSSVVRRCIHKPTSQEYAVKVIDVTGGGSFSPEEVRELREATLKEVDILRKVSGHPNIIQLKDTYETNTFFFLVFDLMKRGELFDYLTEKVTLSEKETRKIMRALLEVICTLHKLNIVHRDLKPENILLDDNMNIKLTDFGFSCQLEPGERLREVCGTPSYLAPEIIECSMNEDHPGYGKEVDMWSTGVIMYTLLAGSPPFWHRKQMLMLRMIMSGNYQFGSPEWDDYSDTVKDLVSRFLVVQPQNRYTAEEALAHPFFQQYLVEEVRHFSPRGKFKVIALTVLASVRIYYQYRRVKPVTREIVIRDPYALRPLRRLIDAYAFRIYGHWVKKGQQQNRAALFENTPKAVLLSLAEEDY
How it was run: as §1

PI4-K-β = target: T10, PI4-K-β (Homo sapiens, UniProt Q9UBF8)
T10 construct: purchased Nanosyn (enzymatic panel); SGC in-house recombinant human kinases (DSF panel); Invitrogen (ALK1-6)
T10 sequence (Q9UBF8 whole entry): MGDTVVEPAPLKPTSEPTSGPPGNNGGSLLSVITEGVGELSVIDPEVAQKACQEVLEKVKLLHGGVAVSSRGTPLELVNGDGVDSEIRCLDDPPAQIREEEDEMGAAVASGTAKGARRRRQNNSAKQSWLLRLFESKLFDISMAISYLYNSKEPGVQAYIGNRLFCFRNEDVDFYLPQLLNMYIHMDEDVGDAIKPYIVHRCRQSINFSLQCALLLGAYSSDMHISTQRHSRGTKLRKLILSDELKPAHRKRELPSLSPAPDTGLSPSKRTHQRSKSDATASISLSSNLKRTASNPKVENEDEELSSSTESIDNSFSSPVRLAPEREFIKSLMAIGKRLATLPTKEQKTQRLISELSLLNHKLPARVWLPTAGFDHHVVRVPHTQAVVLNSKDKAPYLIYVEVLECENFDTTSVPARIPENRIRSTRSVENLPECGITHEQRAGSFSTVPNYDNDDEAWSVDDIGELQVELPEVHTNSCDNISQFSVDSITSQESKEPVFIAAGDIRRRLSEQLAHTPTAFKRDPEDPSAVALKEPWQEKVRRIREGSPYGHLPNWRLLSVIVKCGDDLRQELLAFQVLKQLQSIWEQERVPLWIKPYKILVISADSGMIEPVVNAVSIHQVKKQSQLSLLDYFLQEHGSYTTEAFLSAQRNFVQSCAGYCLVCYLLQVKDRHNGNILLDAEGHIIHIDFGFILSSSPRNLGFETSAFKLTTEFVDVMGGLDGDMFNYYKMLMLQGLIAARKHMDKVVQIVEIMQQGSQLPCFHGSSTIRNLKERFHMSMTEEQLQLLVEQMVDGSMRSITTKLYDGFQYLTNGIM
How it was run: as §1

PIM3 = target: T11, PIM3 (Homo sapiens, UniProt Q86V86)
T11 construct: purchased Nanosyn (enzymatic panel); SGC in-house recombinant human kinases (DSF panel); Invitrogen (ALK1-6)
How it was run: as §1

PKCα = target: T12, PKCα (Homo sapiens, UniProt P17252)
T12 construct: purchased Nanosyn (enzymatic panel); SGC in-house recombinant human kinases (DSF panel); Invitrogen (ALK1-6)
How it was run: as §1

PLK1 = target: T13, PLK1 (Homo sapiens, UniProt P53350)
T13 construct: purchased Nanosyn (enzymatic panel); SGC in-house recombinant human kinases (DSF panel); Invitrogen (ALK1-6)
How it was run: as §1

SGK3 = target: T14, SGK3 (Homo sapiens, UniProt Q96BR1)
T14 construct: purchased Nanosyn (enzymatic panel); SGC in-house recombinant human kinases (DSF panel); Invitrogen (ALK1-6)
T14 sequence (Q96BR1 1-496): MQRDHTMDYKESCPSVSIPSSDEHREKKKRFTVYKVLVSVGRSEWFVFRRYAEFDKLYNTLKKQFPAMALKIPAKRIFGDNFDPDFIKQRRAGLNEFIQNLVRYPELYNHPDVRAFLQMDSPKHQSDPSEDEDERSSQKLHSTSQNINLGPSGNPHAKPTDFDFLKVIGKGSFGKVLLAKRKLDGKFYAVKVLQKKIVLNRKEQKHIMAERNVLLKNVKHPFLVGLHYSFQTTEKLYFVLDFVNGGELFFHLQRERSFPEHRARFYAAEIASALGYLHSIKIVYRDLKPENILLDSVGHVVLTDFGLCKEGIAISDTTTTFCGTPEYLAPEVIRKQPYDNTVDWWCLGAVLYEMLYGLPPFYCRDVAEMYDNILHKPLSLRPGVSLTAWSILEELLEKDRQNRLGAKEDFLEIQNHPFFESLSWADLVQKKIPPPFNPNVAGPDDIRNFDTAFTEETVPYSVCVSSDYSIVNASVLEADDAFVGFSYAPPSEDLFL
How it was run: as §1

T1 sequence (P31749 whole entry): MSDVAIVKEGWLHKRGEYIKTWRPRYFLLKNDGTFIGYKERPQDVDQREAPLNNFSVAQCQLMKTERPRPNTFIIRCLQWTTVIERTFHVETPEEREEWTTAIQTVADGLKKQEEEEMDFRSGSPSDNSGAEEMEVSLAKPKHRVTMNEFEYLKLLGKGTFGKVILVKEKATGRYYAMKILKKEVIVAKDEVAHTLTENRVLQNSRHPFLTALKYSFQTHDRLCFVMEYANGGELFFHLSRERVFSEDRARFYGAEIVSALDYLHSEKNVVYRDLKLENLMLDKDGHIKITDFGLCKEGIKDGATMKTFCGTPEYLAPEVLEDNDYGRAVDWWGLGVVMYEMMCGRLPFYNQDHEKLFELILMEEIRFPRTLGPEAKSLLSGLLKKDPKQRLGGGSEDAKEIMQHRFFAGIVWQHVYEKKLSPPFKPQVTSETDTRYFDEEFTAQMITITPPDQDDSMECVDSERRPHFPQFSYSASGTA

c1ccc2c(-c3cnn4cc(-c5ccc(N6CCNCC6)cc5)cnc34)ccnc2c1 [LDN-193189]
inhibition at 0.1 µM (AKT1): 0.8%
inhibition at 1 µM (AKT1): 1.6%
inhibition at 0.1 µM (AKT2): 1%
inhibition at 1 µM (AKT2): 1.8%
inhibition at 0.1 µM (ALK): 3.7%
inhibition at 1 µM (ALK): 12%
inhibition at 0.1 µM (BLK): 3.9%
inhibition at 1 µM (BLK): 24%
inhibition at 0.1 µM (EPHA4): 7.1%
inhibition at 1 µM (EPHA4): 10%
inhibition at 0.1 µM (FYN): 18%
inhibition at 1 µM (FYN): 60%
inhibition at 0.1 µM (IKK-β): 0.3%
inhibition at 1 µM (IKK-β): 1.4%
inhibition at 0.1 µM (MAPK1): 2.6%
inhibition at 1 µM (MAPK1): 1.4%
inhibition at 0.1 µM (PHKγ1): 5.2%
inhibition at 1 µM (PHKγ1): 27%
inhibition at 0.1 µM (PI4-K-β): 3.5%
inhibition at 1 µM (PI4-K-β): 5.8%
inhibition at 0.1 µM (PIM3): 2%
inhibition at 1 µM (PIM3): -1%
inhibition at 0.1 µM (PKCα): 1%
inhibition at 1 µM (PKCα): 1.1%
inhibition at 0.1 µM (PLK1): 0.8%
inhibition at 1 µM (PLK1): 1.3%
inhibition at 0.1 µM (SGK3): 1.6%
inhibition at 1 µM (SGK3): 2.3%

COc1cc(-c2cc(-c3cccc(O)c3)cnc2N)cc(OC)c1OC [K02288, 3-[6-amino-5-(3,4,5-trimethoxy-phenyl)-pyridin-3-yl]-phenol]
inhibition at 0.1 µM (AKT1): -2%
inhibition at 1 µM (AKT1): -1%
inhibition at 0.1 µM (AKT2): -2%
inhibition at 1 µM (AKT2): -1%
inhibition at 0.1 µM (ALK): -1%
inhibition at 1 µM (ALK): 2.5%
inhibition at 0.1 µM (BLK): 3.2%
inhibition at 1 µM (BLK): 27%
inhibition at 0.1 µM (EPHA4): -2%
inhibition at 1 µM (EPHA4): 17%
inhibition at 0.1 µM (FYN): 10%
inhibition at 1 µM (FYN): 43%
inhibition at 0.1 µM (IKK-β): -2%
inhibition at 1 µM (IKK-β): 1.3%
inhibition at 0.1 µM (MAPK1): -3%
inhibition at 1 µM (MAPK1): 9.9%
inhibition at 0.1 µM (PHKγ1): 1.8%
inhibition at 1 µM (PHKγ1): 4.4%
inhibition at 0.1 µM (PI4-K-β): 0.8%
inhibition at 1 µM (PI4-K-β): -4%
inhibition at 0.1 µM (PIM3): 2.3%
inhibition at 1 µM (PIM3): 5.9%
inhibition at 0.1 µM (PKCα): 0.2%
inhibition at 1 µM (PKCα): 2.2%
inhibition at 0.1 µM (PLK1): -2%
inhibition at 1 µM (PLK1): -2%
inhibition at 0.1 µM (SGK3): -2%
inhibition at 1 µM (SGK3): -1%

From paper PMC3639963, “A New Class of Small Molecule Inhibitor of BMP Signaling” (PLoS ONE, 2013)
